Consider two compounds from US20210221794A1, “ISATIN DERIVATIVES” (KING SAUD UNIVERSITY, priority 2020, published 2021).

Holding throughout (format): cell-based, Human
What all share (conditions): concentration 10-M [sic], 2 days after addition

The test system of assay [1] is Non-Small Cell Lung Cancer cells (EKVX). The assay is described as follows: NCI-60 one-dose screen, Non-Small Cell Lung Cancer cells (EKVX). Here is the method:
(§1) Anticancer activities of the exemplary isatin derivatives were tested by the NIH National Cancer Institutes (NCI), with results summarized in FIGS. 2A-2B. The anticancer activity was tested by NCI, division of cancer treatment and diagnosis, according to the NCI-60 Human Tumor Cell Lines Screen, one-dose screen (https://dtp.cancer.gov/discovery_development/nci-60/methodology.htm). This screening allows for qualified synthesized chemicals to be subjected to an anticancer test against 60 different cancer cell lines. Briefly, exemplary T1 or T2 was dissolved in DMSO:Glycerol, 9:1, at 4 mmol and kept frozen prior to use. For inoculation, a 96 well microtiter was used for the study of different cell lines. Based on the doubling time for each cell line, the well density varied. The plates were incubated at 37° C., 5% CO2, 95% air and 100% relative humidity for 1 day. The exemplary T1 or T2 or a control were added to the plates at a concentration of 10-M. After 2 more days, the plates were fixed and stained to identify growth inhibition relative to cells without drug treatment. Anti-proliferative activity was determined based on careful analysis of historical DTP screening data. Cell death and net growth inhibition were determined based on a time zero control. A value of 100 indicates no growth inhibition. A value of 40 indicates 60% growth inhibition. […]

Assay [2] concerns Breast Cancer cells (HS 578T). Put plainly: NCI-60 one-dose screen, Breast Cancer cells (HS 578T). Here is the method: as §1
Assay [3] relates to Colon Cancer cells (KM12). The assay is described as follows: NCI-60 one-dose screen, Colon Cancer cells (KM12). Here is the method:
as §1

Assay [4] has as its system Ovarian Cancer cells (IGROV1). The assay is described as follows: NCI-60 one-dose screen, Ovarian Cancer cells (IGROV1). As for the experimental part:
as §1

The test system of assay [5] is Renal Cancer cells (CAKI-1). Put plainly: NCI-60 one-dose screen, Renal Cancer cells (CAKI-1). As for the experimental part:
as §1

Assay [6] deals with Renal Cancer cells (UO-31). The assay is described as follows: NCI-60 one-dose screen, Renal Cancer cells (UO-31). As for the experimental part: as §1

`O=C1Nc2ccccc2C1=NN=Cc1c[nH]c2ccccc12` [T1]: the “reduction compared to control (anticancer activity)” value in assay [1] is on record as roughly 79%; in assay [2], roughly 85%; in assay [3] it was roughly 72%; in assay [4], roughly 65%; in assay [5] it was roughly 83%; in assay [6], roughly 74%.
On to `O=C1Nc2ccc(Cl)cc2C1=NN=Cc1c[nH]c2ccccc12` [T2], for which the “reduction compared to control (anticancer activity)” value is roughly 77% in assay [1], roughly 78% in assay [2], roughly 71% in assay [5] and roughly 59% in assay [6].
